From patent EP4722207A1, “OXOISOINDOLINYL-SUBSTITUTED TETRAHYDROPYRIMIDINEDIONE DERIVATIVE AND USE THEREOF” (Gluetacs Therapeutics (Shanghai) Co., Ltd., priority 2023, dated 2024)

Experiments:
Assay type in all cases: cell-based
GSPT1 = biological target: T1, GSPT1 (Homo sapiens, UniProt P15170+Q96SW2); assay: Western-blot assay, substrate protein degradation in hPBMCs: GSPT1; conditions: for substrate protein remaining % GSPT1: 24 hours of compound treatment, 50 nM and 500 nM; for GSPT1 substrate protein remaining %: compounds at 50 nM and 500 nM, 24 hours
T1 construct: effects of the compounds of the present disclosure on the expression of target proteins in cells; endogenous in cells; host or cells: human PBMCs (hPBMCs)
T1 sequence (P15170 whole entry): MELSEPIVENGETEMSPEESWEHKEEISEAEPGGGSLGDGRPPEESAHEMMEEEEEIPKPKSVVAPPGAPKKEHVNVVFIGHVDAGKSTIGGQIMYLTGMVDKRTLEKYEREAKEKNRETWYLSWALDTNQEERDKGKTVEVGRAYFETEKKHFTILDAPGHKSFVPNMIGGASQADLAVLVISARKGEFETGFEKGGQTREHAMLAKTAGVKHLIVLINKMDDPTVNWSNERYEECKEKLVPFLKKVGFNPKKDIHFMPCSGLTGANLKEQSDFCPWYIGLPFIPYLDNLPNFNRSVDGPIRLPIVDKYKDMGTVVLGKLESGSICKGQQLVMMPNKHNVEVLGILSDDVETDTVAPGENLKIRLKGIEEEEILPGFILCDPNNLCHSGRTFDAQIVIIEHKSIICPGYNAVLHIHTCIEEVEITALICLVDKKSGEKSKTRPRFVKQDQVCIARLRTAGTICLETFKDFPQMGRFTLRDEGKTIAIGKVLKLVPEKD
T1 sequence (Q96SW2 whole entry): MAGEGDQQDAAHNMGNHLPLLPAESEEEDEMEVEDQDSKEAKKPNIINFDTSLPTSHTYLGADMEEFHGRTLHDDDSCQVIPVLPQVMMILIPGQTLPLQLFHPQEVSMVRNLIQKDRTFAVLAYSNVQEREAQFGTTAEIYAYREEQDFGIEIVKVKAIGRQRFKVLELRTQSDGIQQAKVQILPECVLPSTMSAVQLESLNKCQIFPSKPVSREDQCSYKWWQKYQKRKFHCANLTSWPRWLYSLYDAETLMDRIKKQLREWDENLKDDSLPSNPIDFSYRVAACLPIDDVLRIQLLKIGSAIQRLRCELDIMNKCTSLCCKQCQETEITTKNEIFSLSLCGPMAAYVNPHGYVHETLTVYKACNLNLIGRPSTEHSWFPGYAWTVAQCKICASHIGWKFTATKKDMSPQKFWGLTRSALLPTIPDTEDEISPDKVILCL
T1 sequence (Q16531 whole entry partner): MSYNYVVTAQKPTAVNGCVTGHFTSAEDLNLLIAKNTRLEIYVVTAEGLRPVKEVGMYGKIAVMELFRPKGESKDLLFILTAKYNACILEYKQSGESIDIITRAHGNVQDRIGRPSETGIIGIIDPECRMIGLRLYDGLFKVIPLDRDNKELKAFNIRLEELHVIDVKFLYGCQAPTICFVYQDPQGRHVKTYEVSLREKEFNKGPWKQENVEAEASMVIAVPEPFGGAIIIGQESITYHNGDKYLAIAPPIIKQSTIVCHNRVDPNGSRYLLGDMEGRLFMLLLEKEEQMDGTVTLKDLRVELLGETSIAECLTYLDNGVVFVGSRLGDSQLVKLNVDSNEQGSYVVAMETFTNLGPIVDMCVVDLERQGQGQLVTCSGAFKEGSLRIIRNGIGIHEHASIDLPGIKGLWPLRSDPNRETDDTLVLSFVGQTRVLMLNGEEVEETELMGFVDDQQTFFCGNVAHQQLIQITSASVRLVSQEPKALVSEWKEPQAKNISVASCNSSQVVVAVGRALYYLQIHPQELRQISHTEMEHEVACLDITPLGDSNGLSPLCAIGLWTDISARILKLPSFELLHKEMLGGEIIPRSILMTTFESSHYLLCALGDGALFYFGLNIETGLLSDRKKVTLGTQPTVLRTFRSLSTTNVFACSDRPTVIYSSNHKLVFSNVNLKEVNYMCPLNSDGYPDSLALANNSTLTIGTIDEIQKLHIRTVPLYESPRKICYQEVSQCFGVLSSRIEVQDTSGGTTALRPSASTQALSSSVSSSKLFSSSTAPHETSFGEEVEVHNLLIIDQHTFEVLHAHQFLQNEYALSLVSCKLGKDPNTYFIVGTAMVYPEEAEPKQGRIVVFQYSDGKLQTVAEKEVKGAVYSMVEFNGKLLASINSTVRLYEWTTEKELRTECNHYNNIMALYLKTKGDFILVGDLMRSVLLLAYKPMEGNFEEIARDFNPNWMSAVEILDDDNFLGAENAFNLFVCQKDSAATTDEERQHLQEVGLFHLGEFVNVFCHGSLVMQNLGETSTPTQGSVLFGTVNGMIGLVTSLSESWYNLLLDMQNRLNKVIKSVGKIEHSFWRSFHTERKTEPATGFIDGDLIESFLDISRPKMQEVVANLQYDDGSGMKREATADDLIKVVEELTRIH

IKZF2 = biological target: T2, IKZF2 (Homo sapiens, UniProt Q96SW2+Q9UKS7); assay: Western-blot assay, substrate protein degradation in hPBMCs: IKZF2; conditions: for substrate protein remaining % IKZF2: 24 hours of compound treatment, 50 nM and 500 nM; for IKZF2 substrate protein remaining %: compounds at 50 nM and 500 nM, 24 hours
T2 construct: effects of the compounds of the present disclosure on the expression of target proteins in cells; endogenous in cells; host or cells: human PBMCs (hPBMCs)
T2 sequence (Q9UKS7 whole entry): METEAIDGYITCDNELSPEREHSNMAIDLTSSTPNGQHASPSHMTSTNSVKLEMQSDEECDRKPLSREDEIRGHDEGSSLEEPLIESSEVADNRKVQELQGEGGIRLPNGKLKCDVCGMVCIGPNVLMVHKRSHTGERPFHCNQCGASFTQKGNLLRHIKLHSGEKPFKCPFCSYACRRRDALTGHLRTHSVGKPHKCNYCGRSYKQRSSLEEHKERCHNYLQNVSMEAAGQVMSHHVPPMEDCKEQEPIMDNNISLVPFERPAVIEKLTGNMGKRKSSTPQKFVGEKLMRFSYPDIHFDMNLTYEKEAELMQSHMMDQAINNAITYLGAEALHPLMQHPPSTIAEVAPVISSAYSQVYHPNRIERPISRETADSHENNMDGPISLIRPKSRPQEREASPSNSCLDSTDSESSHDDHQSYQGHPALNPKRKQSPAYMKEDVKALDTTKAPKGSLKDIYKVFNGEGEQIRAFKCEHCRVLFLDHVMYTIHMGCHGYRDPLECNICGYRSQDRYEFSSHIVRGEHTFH
T2 sequence (Q96SW2 whole entry): as the sequence (Q96SW2 whole entry) above
T2 sequence (Q16531 whole entry partner): as the sequence (Q16531 whole entry partner) above

CK1α = biological target: T3, CK1α (Homo sapiens, UniProt P48729+Q96SW2); assay: Western-blot assay, substrate protein degradation in hPBMCs: CK1α; conditions: for substrate protein remaining % CK1α: 24 hours of compound treatment, 50 nM and 500 nM; for CK1α substrate protein remaining %: compounds at 50 nM and 500 nM, 24 hours
T3 construct: effects of the compounds of the present disclosure on the expression of target proteins in cells; endogenous in cells; host or cells: human PBMCs (hPBMCs)
T3 sequence (P48729 whole entry): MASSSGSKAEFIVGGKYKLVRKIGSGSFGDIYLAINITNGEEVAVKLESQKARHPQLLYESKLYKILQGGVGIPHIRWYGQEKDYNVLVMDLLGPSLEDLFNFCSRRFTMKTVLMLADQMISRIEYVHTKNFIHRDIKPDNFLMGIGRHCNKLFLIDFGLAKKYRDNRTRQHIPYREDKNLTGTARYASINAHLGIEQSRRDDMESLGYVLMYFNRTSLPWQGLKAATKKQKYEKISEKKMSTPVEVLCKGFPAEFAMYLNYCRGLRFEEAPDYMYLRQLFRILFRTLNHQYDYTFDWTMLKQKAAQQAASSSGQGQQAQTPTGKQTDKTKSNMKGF
T3 sequence (Q96SW2 whole entry): as the sequence (Q96SW2 whole entry) above
T3 sequence (Q16531 whole entry partner): as the sequence (Q16531 whole entry partner) above

IKZF1 = biological target: T4, IKZF1 (Homo sapiens, UniProt Q13422+Q96SW2); assay: Western-blot assay, substrate protein degradation in hPBMCs: IKZF1; conditions: for substrate protein remaining % IKZF1: 24 hours of compound treatment, 50 nM and 500 nM; for IKZF1 substrate protein remaining %: compounds at 50 nM and 500 nM, 24 hours
T4 construct: effects of the compounds of the present disclosure on the expression of target proteins in cells; endogenous in cells; host or cells: human PBMCs (hPBMCs)

IKZF3 = biological target: T5, IKZF3 (Homo sapiens, UniProt Q96SW2+Q9UKT9); assay: Western-blot assay, substrate protein degradation in hPBMCs: IKZF3; conditions: for substrate protein remaining % IKZF3: 24 hours of compound treatment, 50 nM and 500 nM; for IKZF3 substrate protein remaining %: compounds at 50 nM and 500 nM, 24 hours
T5 construct: effects of the compounds of the present disclosure on the expression of target proteins in cells; endogenous in cells; host or cells: human PBMCs (hPBMCs)
T5 sequence (Q9UKT9 whole entry): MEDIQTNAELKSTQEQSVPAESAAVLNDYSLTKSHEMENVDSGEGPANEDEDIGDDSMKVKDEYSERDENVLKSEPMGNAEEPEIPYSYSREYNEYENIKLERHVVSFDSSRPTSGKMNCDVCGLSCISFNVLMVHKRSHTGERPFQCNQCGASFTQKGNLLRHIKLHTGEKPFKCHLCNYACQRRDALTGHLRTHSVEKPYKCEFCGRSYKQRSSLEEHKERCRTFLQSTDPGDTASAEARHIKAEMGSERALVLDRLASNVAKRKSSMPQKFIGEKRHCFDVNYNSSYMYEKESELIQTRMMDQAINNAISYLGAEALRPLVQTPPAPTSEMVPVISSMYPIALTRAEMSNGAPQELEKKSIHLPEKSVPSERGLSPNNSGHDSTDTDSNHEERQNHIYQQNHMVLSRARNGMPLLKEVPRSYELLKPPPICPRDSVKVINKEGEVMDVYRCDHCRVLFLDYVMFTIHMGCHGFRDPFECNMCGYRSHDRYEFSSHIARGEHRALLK
T5 sequence (Q96SW2 whole entry): as the sequence (Q96SW2 whole entry) above
T5 sequence (Q16531 whole entry partner): as the sequence (Q16531 whole entry partner) above

WEE1 = biological target: T6, WEE1 (Homo sapiens, UniProt P30291+Q96SW2); assay: Western-blot assay, substrate protein degradation in hPBMCs: WEE1; conditions: for substrate protein remaining % WEE1: 24 hours of compound treatment, 50 nM and 500 nM; for WEE1 substrate protein remaining %: compounds at 50 nM and 500 nM, 24 hours
T6 construct: effects of the compounds of the present disclosure on the expression of target proteins in cells; endogenous in cells; host or cells: human PBMCs (hPBMCs)
T6 sequence (P30291 whole entry): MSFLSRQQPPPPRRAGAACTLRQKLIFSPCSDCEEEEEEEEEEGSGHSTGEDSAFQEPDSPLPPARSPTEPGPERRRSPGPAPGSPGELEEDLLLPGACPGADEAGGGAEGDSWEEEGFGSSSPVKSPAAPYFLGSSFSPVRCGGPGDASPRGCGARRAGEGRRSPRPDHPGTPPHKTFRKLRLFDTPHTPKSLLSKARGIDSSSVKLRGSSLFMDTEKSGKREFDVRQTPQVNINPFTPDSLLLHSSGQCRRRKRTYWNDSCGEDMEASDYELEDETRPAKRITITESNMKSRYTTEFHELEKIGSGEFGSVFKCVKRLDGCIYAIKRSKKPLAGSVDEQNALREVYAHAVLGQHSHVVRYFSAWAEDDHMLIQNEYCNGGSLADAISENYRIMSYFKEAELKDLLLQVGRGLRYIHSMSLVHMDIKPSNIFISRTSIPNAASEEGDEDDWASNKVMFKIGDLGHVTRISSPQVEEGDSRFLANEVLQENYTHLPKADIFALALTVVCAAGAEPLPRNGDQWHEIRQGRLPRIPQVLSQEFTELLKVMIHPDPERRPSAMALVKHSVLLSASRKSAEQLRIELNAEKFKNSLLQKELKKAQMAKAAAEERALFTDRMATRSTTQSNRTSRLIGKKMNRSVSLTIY
T6 sequence (Q96SW2 whole entry): as the sequence (Q96SW2 whole entry) above
T6 sequence (Q16531 whole entry partner): as the sequence (Q16531 whole entry partner) above

Structure (SMILES) | substrate protein remaining % GSPT1 (GSPT1) | substrate protein remaining % IKZF2 (IKZF2) | substrate protein remaining % CK1α (CK1α) | substrate protein remaining % IKZF1 (IKZF1) | substrate protein remaining % IKZF3 (IKZF3) | substrate protein remaining % WEE1 (WEE1) | GSPT1 substrate protein remaining % (GSPT1) | IKZF2 substrate protein remaining % (IKZF2) | CK1α substrate protein remaining % (CK1α) | IKZF1 substrate protein remaining % (IKZF1) | IKZF3 substrate protein remaining % (IKZF3) | WEE1 substrate protein remaining % (WEE1)
O=C1CCN(N2C(=O)c3ccc(CN4CC5CCC4CN5c4cccc(Cl)c4Cl)cc3C2=O)C(=O)N1 (stereo not drawn) [GT-07436, 5-((5-(2,3-dichlorophenyl)-2,5-diazabicyclo[2.2.2]octan-2-yl)methyl)-2-(2,4-dioxotetrahydropyrimidin-1(2H)-yl)isoindoline-1,3-dione] | B (80%< substrate protein remaining %≤ 100%) | A (0% ≤ substrate protein remaining % ≤ 80%) | A (0% ≤ substrate protein remaining % ≤ 80%) | B (80%< substrate protein remaining %≤ 100%) | B (80%< substrate protein remaining %≤ 100%) | B (80%< substrate protein remaining %≤ 100%) |  |  |  |  |  | 
O=C1CCN(N2Cc3cc(CN4CCN(c5nccc(Cl)c5Br)CC4)ccc3C2=O)C(=O)N1 [GT-05432, 1-(5-((4-(3-bromo-4-chloropyridin-2-yl)piperazin-1-yl)methyl)-1-oxoisoindolin-2-yl)dihydropyrimidine-2,4(1H,3H)-dione] | A (0% ≤ substrate protein remaining % ≤ 80%) | B (80%< substrate protein remaining %≤ 100%) | B (80%< substrate protein remaining %≤ 100%) | B (80%< substrate protein remaining %≤ 100%) | B (80%< substrate protein remaining %≤ 100%) | A (0% ≤ substrate protein remaining % ≤ 80%) | B ("B" is defined as 80%< substrate protein remaining %≤ 100%) | B ("B" is defined as 80%< substrate protein remaining %≤ 100%) | B ("B" is defined as 80%< substrate protein remaining %≤ 100%) | B ("B" is defined as 80%< substrate protein remaining %≤ 100%) | B ("B" is defined as 80%< substrate protein remaining %≤ 100%) | A ("A" is defined as 0% ≤ substrate protein remaining % ≤ 80%)
CC1(C)CCC(CN2CC3CC(C2)N3Cc2ccc3c(c2)C(=O)N(N2CCC(=O)NC2=O)C3=O)=C(c2ccc(Cl)cc2)C1 [GT-06457, 5-((3-((4'-chloro-5,5-dimethyl-3,4,5,6-tetrahydro-[1,1'-biphenyl]-2-yl)methyl)-3,6-diazabicyclo[3.1.1]heptan-6-yl)methyl)-2-(2,4-dioxotetrahydropyrimidin-1(2H)-yl)isoindoline-1,3-dione] |  |  |  |  |  |  | A ("A" is defined as 0% ≤ substrate protein remaining % ≤ 80%) | A ("A" is defined as 0% ≤ substrate protein remaining % ≤ 80%) | A ("A" is defined as 0% ≤ substrate protein remaining % ≤ 80%) | A ("A" is defined as 0% ≤ substrate protein remaining % ≤ 80%) | A ("A" is defined as 0% ≤ substrate protein remaining % ≤ 80%) | A ("A" is defined as 0% ≤ substrate protein remaining % ≤ 80%)
O=C1CCN(N2C(=O)c3ccc(CN4CCN(c5ccc(Cl)cn5)CC4)cc3C2=O)C(=O)N1 [GT-05350, 5-((4-(5-chloropyridin-2-yl)piperazin-1-yl)methyl)-2-(2,4-dioxotetrahydropyrimidin-1(2H)-yl)isoindoline-1,3-dione] |  |  |  |  |  |  | A ("A" is defined as 0% ≤ substrate protein remaining % ≤ 80%) | B ("B" is defined as 80%< substrate protein remaining %≤ 100%) | B ("B" is defined as 80%< substrate protein remaining %≤ 100%) | B ("B" is defined as 80%< substrate protein remaining %≤ 100%) | B ("B" is defined as 80%< substrate protein remaining %≤ 100%) | B ("B" is defined as 80%< substrate protein remaining %≤ 100%)
O=C1CCN(N2C(=O)c3ccc(CN4CC=C(c5c[nH]c6ncccc56)CC4)cc3C2=O)C(=O)N1 [GT-05181, 5-((4-(1H-pyrrolo[2,3-b]pyridin-3-yl)-3,6-dihydropyridin-1(2H)-yl)methyl)-2-(2,4-dioxotetrahydropyrimidin-1(2H)-yl)isoindoline-1,3-dione] |  |  |  |  |  |  | B ("B" is defined as 80%< substrate protein remaining %≤ 100%) | B ("B" is defined as 80%< substrate protein remaining %≤ 100%) | B ("B" is defined as 80%< substrate protein remaining %≤ 100%) | B ("B" is defined as 80%< substrate protein remaining %≤ 100%) | B ("B" is defined as 80%< substrate protein remaining %≤ 100%) | A ("A" is defined as 0% ≤ substrate protein remaining % ≤ 80%)
O=C1CCN(N2C(=O)c3ccc(CN4CCN(c5c(F)cccc5F)CC4)cc3C2=O)C(=O)N1 [GT-06796, 5-((4-(2,6-difluorophenyl)piperazin-1-yl)methyl)-2-(2,4-dioxotetrahydropyrimidin-1(2H)-yl)isoindoline-1,3-dione] |  |  |  |  |  |  | B ("B" is defined as 80%< substrate protein remaining %≤ 100%) | B ("B" is defined as 80%< substrate protein remaining %≤ 100%) | B ("B" is defined as 80%< substrate protein remaining %≤ 100%) | B ("B" is defined as 80%< substrate protein remaining %≤ 100%) | B ("B" is defined as 80%< substrate protein remaining %≤ 100%) | A ("A" is defined as 0% ≤ substrate protein remaining % ≤ 80%)
CC1(C)CCC(CN2CC3CCC(C2)N3Cc2ccc3c(c2)C(=O)N(N2CCC(=O)NC2=O)C3=O)=C(c2ccc(Cl)cc2)C1 [GT-07333, 5-((3-((4'-chloro-5,5-dimethyl-3,4,5,6-tetrahydro-[1,1'-biphenyl]-2-yl)methyl)-3,8-diazabicyclo[3.2.1]octan-8-yl)methyl)-2-(2,4-dioxotetrahydropyrimidin-1(2H)-yl)isoindoline-1,3-dione] | A (0% ≤ substrate protein remaining % ≤ 80%) | B (80%< substrate protein remaining %≤ 100%) | B (80%< substrate protein remaining %≤ 100%) | B (80%< substrate protein remaining %≤ 100%) | B (80%< substrate protein remaining %≤ 100%) | B (80%< substrate protein remaining %≤ 100%) |  |  |  |  |  | 
Cc1nc(C2=CCN(Cc3ccc4c(c3)C(=O)N(N3CCC(=O)NC3=O)C4=O)CC2)c2c3c(sc2n1)CCC3 [GT-08435, 2-(2,4-dioxotetrahydropyrimidin-1(2H)-yl)-5-((4-(2-methyl-6,7-dihydro-5H-cyclopenta[4,5]thieno[2,3-d]pyrimidin-4-yl)-3,6-dihydropyridin-1(2H)-yl)methyl)isoindoline-1,3-dione] | A (0% ≤ substrate protein remaining % ≤ 80%) | B (80%< substrate protein remaining %≤ 100%) | B (80%< substrate protein remaining %≤ 100%) | A (0% ≤ substrate protein remaining % ≤ 80%) | A (0% ≤ substrate protein remaining % ≤ 80%) | A (0% ≤ substrate protein remaining % ≤ 80%) |  |  |  |  |  | 
O=C1CCN(N2C(=O)c3ccc(CN4CCC(c5ccco5)CC4)cc3C2=O)C(=O)N1 [GT-05315, 2-(2,4-dioxotetrahydropyrimidin-1(2H)-yl)-5-((4-(furan-2-yl)piperidin-1-yl)methyl)isoindoline-1,3-dione] |  |  |  |  |  |  | A ("A" is defined as 0% ≤ substrate protein remaining % ≤ 80%) | B ("B" is defined as 80%< substrate protein remaining %≤ 100%) | B ("B" is defined as 80%< substrate protein remaining %≤ 100%) | B ("B" is defined as 80%< substrate protein remaining %≤ 100%) | B ("B" is defined as 80%< substrate protein remaining %≤ 100%) | B ("B" is defined as 80%< substrate protein remaining %≤ 100%)
O=C1CCN(N2C(=O)c3ccc(CN4CCn5c(nnc5C(F)(F)F)C4)cc3C2=O)C(=O)N1 [GT-05253, 2-(2,4-dioxotetrahydropyrimidin-1(2H)-yl)-5-((3-(trifluoromethyl)-5,6-dihydro-[1,2,4]triazolo[4,3-a]pyrazin-7(8H)-yl)methyl)isoindoline-1,3-dione] |  |  |  |  |  |  | A ("A" is defined as 0% ≤ substrate protein remaining % ≤ 80%) | B ("B" is defined as 80%< substrate protein remaining %≤ 100%) | B ("B" is defined as 80%< substrate protein remaining %≤ 100%) | B ("B" is defined as 80%< substrate protein remaining %≤ 100%) | B ("B" is defined as 80%< substrate protein remaining %≤ 100%) | B ("B" is defined as 80%< substrate protein remaining %≤ 100%)
CC1(C)CCC(CN2CCN(Cc3ccc4c(c3)CN(N3CCC(=O)NC3=O)C4=O)C(C(F)(F)F)C2)=C(c2ccc(Cl)cc2)C1 (stereo not drawn) [GT-07296, 1-(5-((4-((4'-chloro-5,5-dimethyl-3,4,5,6-tetrahydro-[1,1'-biphenyl]-2-yl)methyl)-2-(trifluoromethyl)piperazin-1-yl)methyl)-1-oxoisoindolin-2-yl)dihydropyrimidine-2,4(1H,3H)-dione] | A (0% ≤ substrate protein remaining % ≤ 80%) | B (80%< substrate protein remaining %≤ 100%) | A (0% ≤ substrate protein remaining % ≤ 80%) | A (0% ≤ substrate protein remaining % ≤ 80%) | B (80%< substrate protein remaining %≤ 100%) | A (0% ≤ substrate protein remaining % ≤ 80%) |  |  |  |  |  | 
